Data reported in patent publication US8445441B2, “Inhibitors of BCL-2” (Case Western Reserve University, priority 2007, dated 2013).

How the values were obtained:
[1] = molecular target: T1, Bfl-1 (Homo sapiens, UniProt Q16548); settings: read-out: inhibitory concentration of 50% (IC50), displacing BH3 peptides; cited from earlier work
T1 sequence (Q16548 1-175): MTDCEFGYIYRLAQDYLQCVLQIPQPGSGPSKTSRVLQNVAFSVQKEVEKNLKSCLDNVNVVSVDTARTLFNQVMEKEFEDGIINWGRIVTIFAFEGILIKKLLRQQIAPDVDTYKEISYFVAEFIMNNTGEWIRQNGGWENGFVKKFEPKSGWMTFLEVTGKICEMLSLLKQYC

[2] = molecular target: Bcl-XL (Homo sapiens, UniProt Q07817); settings: read-out: inhibitory concentration of 50% (IC50), displacing BH3 peptides; cited from earlier work
Sequence of Bcl-XL (Q07817 whole entry, species assumed): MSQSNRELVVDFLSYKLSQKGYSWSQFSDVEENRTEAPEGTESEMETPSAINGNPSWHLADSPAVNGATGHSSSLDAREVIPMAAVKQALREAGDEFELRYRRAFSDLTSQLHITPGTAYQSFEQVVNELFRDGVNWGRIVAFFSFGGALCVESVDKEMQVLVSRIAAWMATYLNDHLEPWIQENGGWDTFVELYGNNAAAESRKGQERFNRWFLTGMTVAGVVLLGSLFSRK

[3] = molecular target: T2, Bcl-B (Homo sapiens, UniProt Q9HD36); settings: read-out: inhibitory concentration of 50% (IC50), displacing BH3 peptides; cited from earlier work
T2 sequence (Q9HD36 1-204): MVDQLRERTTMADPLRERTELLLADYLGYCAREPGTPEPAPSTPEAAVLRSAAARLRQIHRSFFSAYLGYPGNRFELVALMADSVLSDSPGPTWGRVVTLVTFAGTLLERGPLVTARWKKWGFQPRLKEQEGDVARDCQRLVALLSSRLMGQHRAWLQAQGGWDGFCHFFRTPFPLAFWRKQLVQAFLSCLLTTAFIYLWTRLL

[4] = molecular target: T3, Bcl-2-IP3R interaction (Homo sapiens, UniProt P10415); assay: coimmunoprecipitation of Bcl-2 with IP3R from cell extracts; type: binding; parameters: expressed in transfected cells; host or cells: Bcl-2(+) WEHI7.2 cells; also Jurkat cells (endogenous Bcl-2); settings: 400 μM peptide; Bcl-2(+) WEHI7.2 and Jurkat cell extracts
T3 sequence (P10415 whole entry): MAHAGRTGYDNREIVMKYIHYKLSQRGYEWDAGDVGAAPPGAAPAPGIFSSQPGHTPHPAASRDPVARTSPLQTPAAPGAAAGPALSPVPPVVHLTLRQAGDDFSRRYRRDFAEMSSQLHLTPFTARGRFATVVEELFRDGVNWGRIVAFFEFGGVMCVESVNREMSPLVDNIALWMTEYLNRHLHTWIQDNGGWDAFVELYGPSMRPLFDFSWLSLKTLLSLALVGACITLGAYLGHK
Protocol: FIG. 4 illustrates an IP3R Peptide Inhibits Bcl-2-IP3R Interaction but Not Bim-Bcl-2 Interaction. (A and D) IP3R was immunoprecipitated from extracts of Bcl-2(+) WEHI7.2 cells (C) or Jurkat cells in the presence of 400 μM peptides. Peptide 2, but not peptide 1 or control peptide, inhibited the Bcl-2-IP3R coimmunoprecipitation. Summary of Bcl-2 immunoblot signal intensities in three […] experiments identical to (C) (mean±SEM). (B) Bcl-2 was immunoprecipitated from Bcl-2(+) WEHI7.2 cell extracts in the presence of 400 μM peptides, and coimmunoprecipitation of Bim was detected by anti-Bim immunoblotting. […] (E) Summary of Bim immunoblot signal intensities in three experiments identical to (B) (mean±SEM).
Since the IP3R binding region was narrowed down to the 80 amino acid subdomain 3a1 (aa 1347-1426), we designed two 20 amino acid peptides (peptide 1, aa 1365-1384 (SEQ ID NO:2); peptide 2, aa 1389-1408 (SEQ ID NO:3)) based on the degree of homology in this region among different IP3R isoforms. […] The inhibitory effect of peptide 2 on Bcl-2-IP3R interaction was also detected in coimmunoprecipitation assays employing both Bcl-2(+) WEHI7.2 cells (FIGS. 4A and 4B) and Jurkat cells (FIG. 4C). […]

[5] = system: WEHI7.2 cells; assay: anti-CD3-induced Ca2+ elevation by digital imaging; type: cell-based; settings: Bcl-2(+) WEHI7.2 cells; 60 μM peptide with Chariot reagent
Protocol: (§1) FIGS. 6A-D illustrates peptide 2 (SEQ ID NO:3) Reverses Bcl-2's Inhibition of Anti-CD3-Induced Ca^2+Elevation. (A) Representative Ca^2+ traces (each the mean of ˜65 cells) recording anti-CD3 (arrow, time of addition)-induced Ca^2+ elevation in Bcl-2(+) WEHI7.2 cells. Peptide (60 μM) uptake was facilitated by Chariot reagent. (B) Peak anti-CD3 induced Ca^2+ elevation in Bcl-2(−) and Bcl-2(+) WEHI7.2 cells treated with peptides as in (A) [mean±SEM, five experiments for Bcl-2(−) and seven experiments for Bcl-2(+) cells, with mean 68 cells per sample per experiment]. (C) Representative Ca^2+ traces in Jurkat cells (mean 85 cells each). Treatment conditions are the same as in (A), except that a control involving addition of peptide 2 without Chariot reagent has been added. (D) Peak anti-CD3-induced Ca^2+ elevation in Jurkat cells treated with peptides as in (C) (mean±SEM, seven experiments, mean 81 cells per sample per experiment).
(§2) Next we investigated whether peptide 2 also reverses Bcl-2's inhibitory effect on Ca^2+ release through the IP3R in Bcl-2(+) and (−) WEHI7.2 clones, newly derived WEHI7.2 mixed populations exogenously expressing Bcl-2, and Jurkat cells. Optimal conditions for peptide delivery and anti-CD3 concentration were determined in preliminary experiments. Peptide delivery in the lipid bilayer is 100%, whereas the penetration of peptide 2 into cells is much less, accounting for the lesser effect in cells. Therefore, a higher concentration of peptide (60 μM) was delivered into cells using the Chariot delivery reagent. Cytoplasmic Ca^2+ concentration was continuously measured at a single-cell level by digital imaging during anti-CD3 treatment. Representative Ca^2+ traces from Bcl-2(+) WEHI7.2 cells are shown in FIG. 6A, and the average Ca^2+ elevation induced by anti-CD3 in seven experiments is summarized in FIG. 6B. Observed variations in lag phase are at least partially attributable to the fact that lymphocytes are only loosely adherent to coverslips and thus rapid buffer exchange is not possible during antibody additions. Peptide 2 enhanced anti-CD3-induced Ca^2+ elevation in Bcl-2(+) WEHI7.2 cells by 40%. […] Peptide 2 had no effect on Ca^2+ elevation when added to the cells in the absence of the Chariot reagent. […] The low Bcl-2 level in Jurkat cells and the barely detectable endogenous Bcl-2 in Bcl-2(−) WEHI7.2 cells are consistent with the higher amplitude and longer duration of the Ca^2+ response in these cells in contrast to Bcl-2(+) WEHI7.2 cells (compare FIGS. 6A and 6B to FIGS. 6C and 6D). Thus, peptide 2 modulated anti-CD3-induced Ca^2+ elevation in both Bcl-2(+) WEHI7.2 cells and Jurkat cells, consistent with the ability of peptide 2 to disrupt Bcl-2-IP3R interaction.

[6] = system: Jurkat cells; assay: anti-CD3-induced Ca2+ elevation by digital imaging; type: cell-based; settings: Jurkat cells; 60 μM peptide with Chariot reagent
Protocol: as §1, §2

[7] = system: Jurkat cells; assay: anti-CD3-induced apoptosis (apoptotic nuclei); type: cell-based; settings: 60 μM peptide with Chariot, 5 μg/ml anti-CD3, 24 hr, anti-CD3 alone 20%-30%
Protocol: FIG. 7 illustrates peptide 2 Enhances Anti-CD3-Induced Apoptosis in Bcl-2-Positive Cells (A) Typical apoptotic nuclear morphology (arrow, Hoechst 33342 stain) 24 hr after 5 μg/ml anti-CD3 treatment of Jurkat cells. Scale bars, 10 μm. (B) Bcl-2(−) and Bcl-2(+) WEHI7.2 cells were pre-incubated±60 μM peptides plus Chariot reagent and then incubated with 20 μg/ml anti-CD3 for 24 hr. Symbols represent the percentage of cells (mean±SEM) with apoptotic nuclei in three experiments for Bcl-2(−) and five experiments for Bcl-2(+) cells (200 cells counted per coverslip). (C) Jurkat cells were pre-incubated±60 μM peptides±Chariot reagent and then incubated with 5 μg/ml anti-CD3 for 24 hr. Symbols represent the percentage of cells (mean±SEM) with apoptotic nuclei in five experiments (240 cells counted per coverslip).
Peptide 2 also attenuated Bcl-2's inhibition of anti-CD3-induced apoptosis in Jurkat cells. In preliminary studies (data not shown), we tested several anti-CD3 concentrations. Higher concentrations of anti-CD3 induced high levels of apoptosis that might obscure the effect of the peptide. We therefore used 5 μg/ml anti-CD3, sufficient to induce 20%-30% apoptosis.

[8] = molecular target: T3, Bcl-2-IP3R interaction; assay: GST pull-down of Bcl-2 from Bcl-2(+) WEHI7.2 extracts with GST-IP3R domain 3; type: binding, mouse; parameters: expressed in transfected cells; host or cells: Bcl-2(+) WEHI7.2 cells (source of Bcl-2); settings: 1 mM peptide
Description: To identify where Bcl-2 interacts on the IP3R, we used a series of GST-IP3R fusion constructs corresponding to five fragments covering the first N-terminal 2216 amino acids and 1 fragment corresponding to the last 160 amino acids of mouse IP3R type 1 (FIG. 3). These fragments are located in the cytoplasm and coincide with “natural” domains generated by limited proteolysis. The transmembrane domain was not included. After purification, fragments migrated as single prominent bands corresponding to their expected molecular weights, although some minor degradation products were detected.
The first set of GST pull-down experiments utilized extracts of Bcl-2(+) WEHI7.2 cells and Jurkat cells as two independent sources of Bcl-2. Cell extracts were incubated with GST-IP3R fragments prebound to glutathione sepharose resin, with equal loading of the GST-IP3R fragments. […] These experiments were repeated a total of five times with the same result. It is important to note that, following incubation of cell extracts with GST-IP3R fragments on the glutathione sepharose resin, the resin was washed extensively.
Since the IP3R binding region was narrowed down to the 80 amino acid subdomain 3a1 (aa 1347-1426), we designed two 20 amino acid peptides (peptide 1, aa 1365-1384 (SEQ ID NO:2); peptide 2, aa 1389-1408 (SEQ ID NO:3)) based on the degree of homology in this region among different IP3R isoforms. Also, preference was given to regions that have beta-turn and/or α-helical structures, rather than random-coil or nonstructured sequences, expecting that one or both of the peptides could inhibit the Bcl-2-IP3R interaction. Furthermore, the C-terminal region of domain 3a1 was not selected because of its lower accessibility and unpredictable secondary structure (Invitrogen PeptideSelect Design Tool). The scrambled sequence of peptide 2 was also synthesized and used as a control. […] The inhibitory effect of peptide 2 on Bcl-2-IP3R interaction was also detected in coimmunoprecipitation assays employing both Bcl-2(+) WEHI7.2 cells (FIGS. 4A and 4B) and Jurkat cells (FIG. 4C). […]

Molecule	IC50 [1] [nM]	IC50 [2] [nM]	IC50 [3] [nM]	inhibition of Bcl-2-IP3R coimmunoprecipitation [4]	enhancement of anti-CD3-induced Ca2+ elevation [5]	enhancement of anti-CD3-induced Ca2+ elevation [6]	anti-CD3-induced apoptosis (percentage of apoptotic cells) [7]	amount of Bcl-2 bound to GST-IP3R domain 3 [8]
Cc1cc2c(C(C)C)c(O)c(O)c(C=O)c2c(O)c1-c1c(C)cc2c(C(C)C)c(O)c(O)c(C=O)c2c1O [Gossypol, 1,6,7,1′,6′,7′-Hexahydroxy-5,5′-diisopropyl-3,3′-dimethyl-[2,2′]binaphthalenyl-8,8′-dicarbaldehyde]	~500	~500	~500	–	–	–	–	–
MDENSPLMYHIHLVELLAVC (listed as Homo sapiens) [peptide 1, 20 amino acid peptide, aa 1365-1384 of IP3R subdomain 3a1]	–	–	–	did not inhibit	did not enhance	did not	did not have an effect	partially inhibited
